Measured values: PMC5614861 (Organic & biomolecular chemistry, 2017)
Where “and” joins values, the source holds several entries; their conditions need not be identical. Identical values can stand only once. Numbered stars: 1 amine (or outer) side, 2 acyl side, 3 side chain; on linkers, the order of the positions; unused ones are H or OH. Bridge positions count the residues as written; N and C are the ends. Square brackets hold non-standard residues; d marks the D form. Peptide text beside a SMILES is read from it. X2 = O=C([C@@H]1C[C@H](n2cc(C3=CC=C[CH]3[Fe][CH]3C=CC=C3)nn2)CN1[*:1])[*:2]; X1 = O=C([C@@H]1C[C@H](n2cc(-c3ccc(-c4cccs4)cc3)nn2)CN1[*:1])[*:2]

Tests used:
[1] = target: monomeric wild type gp120 YU-2 (Human immunodeficiency virus type 1 group M subtype B, UniProt P35961); assay: Isothermal titration calorimetry; assay type: binding, HIV-1; settings: ITC, 25°C, 1× PBS pH 7.3
HOS.T4.R5 cells = assay: Cytotoxicity / cell viability assay; assay type: cell-based; settings: WST-1, 24 h post-exposure, highest concentration used 100 μM
[2] = target: HIV-1 YU-2 gp120 binding to sCD4 (Human immunodeficiency virus type 1 group M subtype B, UniProt P35961); assay: SPR competition assay, inhibition of gp120 binding to CD4; settings: 250 nM YU-2 gp120, 25°C, PBS pH 7.4, triplicate
HIV-1Bal.01 = assay type: cell-based; settings: cutoff 10 μM

CC[C@H](C)[C@@H]1NC(=O)[C@H](CC(N)=O)NC(=O)[C@@H](N)CC(=O)NCCCC[C@@H](C(N)=O)NC(=O)[C@H](Cc2c[nH]c3ccccc23)NC(=O)[C@@H]2C[C@H](n3cc(C4=CC=C[CH]4[Fe][CH]4C=CC=C4)nn3)CN2C1=O (stereo partly drawn) [cPT 3] (H-DNI[X2]WK-NH2; lactam 1-6)
ΔH [1]: -5.96 kcal/mol and -5.96 ± 0.13 kcal/mol
ΔS [1]: 0.00922 kcal/mol
−TΔS [1]: -2.75 kcal/mol

CC[C@H](C)[C@@H]1NC(=O)[C@H](CC(N)=O)NC(=O)[C@@H](N)CC(=O)NCCCC[C@@H](C(N)=O)NC(=O)[C@H](Cc2c[nH]c3ccccc23)NC(=O)[C@@H]2C[C@H](n3cc(-c4ccc(-c5cccs5)cc4)nn3)CN2C1=O [cPT 36] (H-DNI[X1]WK-NH2; lactam 1-6)
Cytotoxicity (cell viability) (HOS.T4.R5 cells): no cytotoxicity was detected
Inhibition of gp120 binding to CD4 [2]: inhibited
ΔH [1]: -4.07 ± 0.06 kcal/mol
ΔS [1]: 0.0159 kcal/mol
−TΔS [1]: -4.74 kcal/mol

cPT 11
Activity designation in HIV-1Bal.01 infection inhibition assay (HIV-1Bal.01): weak (the compound showed weak inhibition (less than 50%) at 10 μM)
